For orientation: IC50 means the concentration that gives 50% inhibition.

One series concerns KB3.1. Nature of the series: MTT cytotoxicity assay, KB3.1. It is filed as cell-based. The following applies: KB3.1 human epidermoid carcinoma cell line, 5 d incubation, 37 °C, 5% CO2, DMEM + 10% FBS, mean ± SD of two independent measurements, ≤ values: individual results varied widely, given as a range. The procedure:
(§1) The cell cultures were cultivated at 37 °C under an atmosphere containing 5% CO2. Before usage, Dulbecco’s Modified Eagle Medium (DMEM) from Gibco (Thermo Fisher Scientific) was supplemented with 10% fetal bovine serum (FBS) from Gibco. Cells were used between passage 5 and 30 and were split separately for at least two passages to obtain biological repeats. Cells were washed with PBS and 0.5 mL trypsin was added before treatment. Cells were then incubated for 5 min before adding 10 mL medium containing 10% FBS. Per well, 120 µL cell suspension 5 × 10^4 cells/mL (CHO-K1, HCT-116. U-2 OS, KB3.1) or 1 × 10^5 cells/mL (HepG2) cells were seeded in transparent 96-well cell bind plate and incubated for 2 h at 37 °C and an atmosphere of 5% CO2. Each compound was tested in a serial dilution so that the starting concentration is 111 µg/mL, which is diluted by 1:3 as well as the internal solvent control prepared in DMEM with 10% FBS. After 5 d incubation at 37 °C and an atmosphere of 5% CO2, 20 μL of 5 mg/mL MTT (thiazolyl blue tetrazolium bromide) in PBS was added per well and cells were further incubated until coloration of the cells. The medium was then discarded and 100 μL 2-propanol/10 N HCl (250:1) added to the cells. The plates were analyzed by measuring the absorbance at 570 nm and 630 nm as reference using a microplate reader Infinite® 200 Pro from Tecan (Männedorf, Switzerland). Absorption is then converted to cell viability expressed as percentage relative to the respective solvent control. The calculated percentage of growth inhibition were determined by sigmoidal curve fitting using GraphPad (Boston, MA, USA) Prism software (version 10.0.2). Two independent measurements were generated for mean and standard deviation.

The next series has as its system HeLa-S3 cells. The following applies: ref [1]; cited from earlier work. Here is the method: Isolation of (−)-doliculide (Figure 1) from the Japanese sea hare, Dolabella auricularia, was first reported almost 30 years ago by Yamada et al., along with its potent cytotoxicity against HeLa-S3 cells (IC50 = 1 ng/mL). […] Due to their biological activities as anticancer agents, naturally derived cyclopeptides are interesting candidates for drug development, and so ...

For another series, the system named is HepG2. Nature of the series: MTT cytotoxicity assay, HepG2. The following applies: HepG2 human hepatocellular carcinoma, 5 d incubation, 37 °C, 5% CO2, DMEM + 10% FBS, mean ± SD of two independent measurements. It counts as cell-based. Here is the method:
as §1
A general note: Tetrazolium dyes change colour on reduction, which living cells bring about.

A further series has as its system HCT-116. In words: MTT cytotoxicity assay, HCT-116. It is filed as cell-based. The following applies: HCT-116 human colon carcinoma, 5 d incubation, 37 °C, 5% CO2, DMEM + 10% FBS, mean ± SD of two independent measurements, ≤ values: individual results varied widely, given as a range. Here is the method: as §1
For another series, the system named is CHO-K1. In words: MTT cytotoxicity assay, CHO-K1. It is filed as cell-based. The following applies: CHO-K1 mutagenized Chinese hamster ovary, 5 d incubation, 37 °C, 5% CO2, DMEM + 10% FBS, mean ± SD of two independent measurements. The procedure: as §1
A further series has as its system U-2 OS. In words: MTT cytotoxicity assay, U-2 OS. It is filed as cell-based. The following applies: U-2 OS human bone osteosarcoma, 5 d incubation, 37 °C, 5% CO2, DMEM + 10% FBS, mean ± SD of two independent measurements, ≤ values: individual results varied widely, given as a range. The procedure:
as §1

Regarding `CC(C)[C@@H]1C[C@H](O)[C@H](C)C[C@H](C)C[C@H](C)C(=O)NCC(=O)N(C)[C@H](Cc2ccc(O)c(I)c2)C(=O)O1` [A, (−)-Doliculide], the IC50 was found to be 38 ± 9.9 nM in the series with KB3.1; 16.4 ± 4.2 nM in the series with HepG2; 8.8 ± 0.5 nM in the series with HCT-116; 111 ± 4.5 nM in the series with CHO-K1; 25.2 ± 1.8 nM in the series with U-2 OS. The “cytotoxicity against HeLa-S3 cells, IC50” value in the series with HeLa-S3 cells is listed as 1 ng/mL.

In the case of `C=CC[C@@H]1C[C@H](O)[C@H](C)C[C@H](C)C[C@H](C)C(=O)NCC(=O)N(C)[C@H](Cc2ccc(O)c(I)c2)C(=O)O1` [Compound 8b, (3R,9S,11S,13R,14S,16R)-16-Allyl-14-hydroxy-3-(4-hydroxy-3-iodobenzyl)-4,9,11,13-tetramethyl-1-oxa-4,7-diazacyclohexadecane-2,5,8-trione], the 50% inhibitory concentration (IC50) in the series on KB3.1 is 103 ± 65 nM; with HepG2 it was greater than 60200 nM; in the series on HCT-116 it was 16 ± 8 nM; in the series on CHO-K1 it was 264 ± 13 nM; in the series on U-2 OS, 521 ± 488 nM.

`C[C@H]1C[C@@H](C)[C@@H](O)C[C@@H](CCCSCc2ccccc2)OC(=O)[C@@H](Cc2ccc(O)c(I)c2)N(C)C(=O)CNC(=O)[C@@H](C)C1` [Compound 11c, (3R,9S,11S,13R,14S,16R)-16-[3-(Benzylthio)propyl]-14-hydroxy-3-(4-hydroxy-3-iodobenzyl)-4,9,11,13-tetramethyl-1-oxa-4,7-diazacyclohexadecane-2,5,8-trione]: the half-maximal inhibitory concentration (IC50) in the series on KB3.1 is 37 ± 1 nM; in the series with HepG2, greater than 50000 nM; in the series on HCT-116 it was 10.8 ± 1.2 nM; in the series on CHO-K1 it was 391 ± 122 nM; in the series on U-2 OS, 582 ± 68 nM.

Take `C[C@H]1C[C@@H](C)[C@@H](O)C[C@@H](CC#Cc2ccccc2)OC(=O)[C@@H](Cc2ccc(O)c(I)c2)N(C)C(=O)CNC(=O)[C@@H](C)C1` [Compound 10a, (3R,9S,11S,13R,14S,16R)-14-Hydroxy-3-(4-hydroxy-3-iodobenzyl)-4,9,11,13-tetramethyl-16-(3-phenylprop-2-yn-1-yl)-1-oxa-4,7-diazacyclohexadecane-2,5,8-trione]: the half-maximal inhibitory concentration (IC50) with KB3.1 worked out at 49 ± 29 nM; in the series with HepG2, 15500 ± 300 nM; in the series on HCT-116, 14.5 ± 0.6 nM; with CHO-K1, 247 ± 145 nM; in the series on U-2 OS, 683 ± 87 nM.

For the compound `C[C@H]1C[C@@H](C)[C@@H](O)C[C@@H](Cc2cn(Cc3ccccc3)nn2)OC(=O)[C@@H](Cc2ccc(O)c(I)c2)N(C)C(=O)CNC(=O)[C@@H](C)C1` [Compound 9a, (3R,9S,11S,13R,14S,16R)-16-[(1-Benzyl-1H-1,2,3-triazol-4-yl)methyl]-14-hydroxy-3-(4-hydroxy-3-iodobenzyl)-4,9,11,13-tetramethyl-1-oxa-4,7-diazacyclohexadecane-2,5,8-trione], the IC50 was 47 ± 13 nM in the series on KB3.1; greater than 49600 nM in the series with HepG2; 309 ± 81 nM with HCT-116; 24 ± 9 nM in the series with CHO-K1; no more than 80 nM in the series on U-2 OS.

`C[C@H]1C[C@@H](C)[C@@H](O)C[C@@H](CC#Cc2ccc([N+](=O)[O-])cc2)OC(=O)[C@@H](Cc2ccc(O)c(I)c2)N(C)C(=O)CNC(=O)[C@@H](C)C1` [Compound 10c, (3R,9S,11S,13R,14S,16R)-14-Hydroxy-3-(4-hydroxy-3-iodobenzyl)-4,9,11,13-tetramethyl-16-[3-(4-nitrophenyl)prop-2-yn-1-yl]-1-oxa-4,7-diazacyclohexadecane-2,5,8-trione]: the IC50 in the series with KB3.1 is 98 ± 41 nM; with HepG2 it was greater than 50400 nM; in the series on HCT-116, 10 ± 3 nM; with CHO-K1, 586 ± 205 nM; in the series on U-2 OS, 491 ± 95 nM.

(Values after publication PMC11051198, “Synthesis and Late-Stage Modification of (−)-Doliculide Derivatives Using Matteson’s Homologation Approach” (Marine Drugs, 2024).)
